According to patent publication US9512107B2, “Therapeutically active compositions and their methods of use” (Agios Pharmaceuticals, Inc., priority 2012, dated 2016):
Substitutions are numbered along the chain they refer to.

Assays:
[1] = tested on: U87MG pLVX-IDH2 R140Q-neo cells; experiment: U87MG pLVX-IDH2 R140Q-neo cell based assay, 2-HG in media by LC-MS at 48 hours; settings: Homo sapiens, U-87 MG
In short: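 2-HG secreted into the medium was measured by LC-MS after 48 h of compound treatment (0.2% DMSO final) of U87MG pLVX-IDH2 R140Q-neo cells in DMEM/10% FBS. The same wells were assayed at 72 h by CellTiter-Glo luminescence for effects on growth.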

IDH2 R172K = target: T1, IDH2 R172K (Homo sapiens, UniProt P48735, R172K); experiment: IDH2 R172K enzymatic assay (NADPH cofactor depletion, diaphorase/resazurin readout); format: biochemical; settings: read-out: Enz R172K
T1 sequence (P48735 40-452 R172K): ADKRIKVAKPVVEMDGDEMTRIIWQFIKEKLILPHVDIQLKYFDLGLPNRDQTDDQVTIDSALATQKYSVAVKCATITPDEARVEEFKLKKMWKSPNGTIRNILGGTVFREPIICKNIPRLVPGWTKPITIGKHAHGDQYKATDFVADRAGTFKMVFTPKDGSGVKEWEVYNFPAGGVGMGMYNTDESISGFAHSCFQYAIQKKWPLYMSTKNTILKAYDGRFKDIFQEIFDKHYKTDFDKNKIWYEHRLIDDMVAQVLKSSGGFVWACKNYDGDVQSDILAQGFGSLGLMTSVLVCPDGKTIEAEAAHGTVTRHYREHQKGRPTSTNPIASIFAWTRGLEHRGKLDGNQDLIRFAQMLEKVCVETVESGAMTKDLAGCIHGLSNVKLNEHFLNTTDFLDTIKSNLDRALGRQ
In short: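 Residual NADPH is read out as resorufin fluorescence after quenching with 36 μg/ml diaphorase and 60 μM resazurin in stop mix. The stop follows a 1 h room-temperature reaction started by a substrate mix of NADPH (50 μM) and α-KG (6.3 mM), with compound preincubated with enzyme for 1 h beforehand.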

IDH2 R140Q = target: T2, IDH2 R140Q (Homo sapiens, UniProt P48735, R140Q); experiment: IDH2 R140Q enzymatic assay (cofactor depletion, similar format); format: biochemical; settings: read-out: Enz R140Q
T2 sequence (P48735 40-452 R140Q): T1 sequence (P48735 40-452 R172K) with R101Q, K133R

| SMILES | IC50 [1] | IC50 (IDH2 R172K) | IC50 (IDH2 R140Q) |
| --- | --- | --- | --- |
| c1ccc(-c2nc(NCC3CCC3)nc(Nc3ccncc3)n2)cc1 [Compound 250, N^2-(cyclobutylmethyl)-6-phenyl-N^4-(pyridin-4-yl)-1,3,5-triazine-2,4-diamine] | 100 to 1000 nM | 100 to 1000 nM | < 100 nM |
| FC(F)(F)c1cc(Nc2nc(NC3COC3)nc(-c3ccccn3)n2)ccn1 [Compound 336, N^2-(oxetan-3-yl)-6-(pyridin-2-yl)-N^4-(2-(trifluoromethyl)pyridin-4-yl)-1,3,5-triazine-2,4-diamine] | < 100 nM | 100 to 1000 nM | 100 to 1000 nM |
| CC(C)(CO)CNc1nc(Nc2ccnc(Cl)c2)nc(-c2ccccc2)n1 [Compound 261] | < 100 nM | 100 to 1000 nM | < 100 nM |
| CC(C)Nc1nc(Nc2cc(Cl)cc(S(C)(=O)=O)c2)nc(-c2cccc(C(C)(F)F)n2)n1 [Compound 614, N2-(3-chloro-5-(methylsulfonyl)phenyl)-6-(6-(1,1-difluoroethyl)pyridin-2-yl)-N4-isopropyl-1,3,5-triazine-2,4-diamine] | < 100 nM | < 100 nM | 100 to 1000 nM |
| CC(C)(O)CNc1nc(Nc2cc(F)cc(F)c2)nc(-c2cccc(N)n2)n1 [Compound 691, 1-(4-(6-aminopyridin-2-yl)-6-(3,5-difluorophenylamino)-1,3,5-triazin-2-ylamino)-2-methylpropan-2-ol] | < 100 nM | 100 to 1000 nM | 100 to 1000 nM |
| FC(F)(F)c1cccc(-c2nc(Nc3cnoc3)nc(NC3COC3)n2)n1 [Compound 337, N^2-(isoxazol-4-yl)-N^4-(oxetan-3-yl)-6-(6-(trifluoromethyl)pyridin-2-yl)-1,3,5-triazine-2,4-diamine] | 100 to 1000 nM | 1000 to 10000 nM | 100 to 1000 nM |
| CC(C)Nc1nc(Nc2cccc(Cl)c2)nc(-c2ccccc2)n1 [Compound 149] | < 100 nM | < 100 nM | < 100 nM |
| CC(CO)CNc1nc(Nc2ccnc(C(F)(F)F)c2)nc(-c2cccc(C(F)(F)F)n2)n1 (stereo not drawn) [Compound 552, 2-Methyl-3-[4-(6-trifluoromethyl-pyridin-2-yl)-6-(2-trifluoromethyl-pyridin-4-ylamino)-[1,3,5]triazin-2-ylamino]-propan-1-ol] | < 100 nM | 100 to 1000 nM | 100 to 1000 nM |
| CC1(Nc2nc(Nc3ccncc3)nc(-c3ccccc3)n2)CC1 [Compound 218, N^2-(1-methylcyclopropyl)-6-phenyl-N^4-(pyridin-4-yl)-1,3,5-triazine-2,4-diamine] | 100 to 1000 nM | 1000 to 10000 nM | < 100 nM |
| CC(C)Nc1nc(NC(=O)Cc2ccccc2)nc(-c2ccccc2)n1 [Compound 170] | 1000 to 10000 nM | 100 to 1000 nM | 100 to 1000 nM |
| CC(C)COC(=O)Nc1nc(Nc2ccccc2)nc(-c2ccccc2)n1 [Compound 179, Isobutyl 4-phenyl-6-(phenyl-amino)-1,3,5-triazin-2-ylcarbamate] | < 100 nM | < 100 nM | < 100 nM |
| CC(CO)Nc1nc(Nc2ccccc2)nc(-c2ccccc2)n1 (stereo not drawn) [Compound 241, 2-(4-phenyl-6-(phenylamino)-1,3,5-triazin-2-ylamino)propan-1-ol] | 100 to 1000 nM | 1000 to 10000 nM | < 100 nM |
| Cc1cc(Nc2nc(NC(C)C)nc(-c3cccc(C(F)(F)F)n3)n2)cnn1 [Compound 501, N-Isopropyl-N′-(6-methyl-pyridazin-4-yl)-6-(6-trifluoromethyl-pyridin-2-yl)-[1,3,5]triazine-2,4-diamine] | 100 to 1000 nM | 1000 to 10000 nM | 100 to 1000 nM |
| CC(C)(O)CNc1nc(Nc2ccnc(F)c2)nc(-c2cccc(C(F)(F)F)n2)n1 [Compound 500, 1-[4-(2-Fluoro-pyridin-4-ylamino)-6-(6-trifluoromethyl-pyridin-2-yl)-[1,3,5]triazin-2-ylamino]-2-methyl-propan-2-ol] | < 100 nM | < 100 nM | 100 to 1000 nM |
| CC(C)(C)Nc1nc(Nc2ccnc(C(C)(F)F)c2)nc(-c2cccc(C(F)(F)F)n2)n1 [Compound 567, N-tert-Butyl-N′-[2-(1,1-difluoro-ethyl)-pyridin-4-yl]-6-(6-trifluoromethyl-pyridin-2-yl)-[1,3,5]triazine-2,4-diamine] | < 100 nM | < 100 nM | 100 to 1000 nM |
| CC(C)Nc1nc(Nc2ccc(F)nc2)nc(-c2cccc(N)n2)n1 [Compound 462, 6-(6-Amino-pyridin-2-yl)-N-(6-fluoro-pyridin-3-yl)-N′-isopropyl-[1,3,5]triazine-2,4-diamine] | 100 to 1000 nM | 100 to 1000 nM | 100 to 1000 nM |

The remaining lines, values ahead:

| IC50 [1] | IC50 (IDH2 R172K) | IC50 (IDH2 R140Q) | SMILES |
| --- | --- | --- | --- |
| < 100 nM | 100 to 1000 nM | < 100 nM | CC(C)(C)OC(=O)Nc1nc(Nc2ccccc2)nc(-c2ccccc2)n1 [Compound 416, Tert-butyl 4-phenyl-6-(phenylamino)-1,3,5-triazin-2-ylcarbamate] |
| < 100 nM | < 100 nM | 100 to 1000 nM | CC(C)Nc1nc(Nc2ccnc(C3CC3)c2)nc(-c2cccc(C(F)(F)F)n2)n1 [Compound 563, N-(2-Cyclopropyl-pyridin-4-yl)-N′-isopropyl-6-(6-trifluoromethyl-pyridin-2-yl)-[1,3,5]triazine-2,4-diamine] |
| < 100 nM | < 100 nM | < 100 nM | Fc1ccccc1-c1nc(Nc2ccnc(C(F)(F)F)c2)nc(NC2COC2)n1 [Compound 627, 6-(2-Fluoro-phenyl)-N-oxetan-3-yl-N′-(2-trifluoromethyl-pyridin-4-yl)-[1,3,5]triazine-2,4-diamine] |
| < 100 nM | 100 to 1000 nM | 100 to 1000 nM | CC(C)Nc1nc(Nc2cc(F)cc(F)c2)nc(-c2cc(Cl)cc(N)n2)n1 [Compound 485, 6-(6-amino-4-chloropyridin-2-yl)-N^2-(3,5-difluorophenyl)-N^4-isopropyl-1,3,5-triazine-2,4-diamine] |
| < 100 nM | < 100 nM | 100 to 1000 nM | FC(F)(F)c1cc(Nc2nc(NCC3CC3)nc(-c3cccc(C(F)(F)F)n3)n2)ccn1 [Compound 597, N2-(cyclopropylmethyl)-6-(6-(trifluoromethyl)pyridin-2-yl)-N4-(2-(trifluoromethyl)pyridin-4-yl)-1,3,5-triazine-2,4-diamine] |
| < 100 nM | < 100 nM | 100 to 1000 nM | FC(F)(F)c1cc(Nc2nc(NC3C4COCC43)nc(-c3cccc(C(F)(F)F)n3)n2)ccn1 (stereo not drawn) [Compound 504, N-(3-Oxa-bicyclo[3.1.0]hex-6-yl)-N′-(2-trifluoromethyl-pyridin-4-yl)-6-(6-trifluoromethyl-pyridin-2-yl)-[1,3,5]triazine-2,4-diamine] |
| < 100 nM | < 100 nM | < 100 nM | CC(C)Nc1nc(Nc2ccnc(Cl)c2)nc(-c2ccccc2)n1 [Compound 199, N^2-(2-chloropyridin-4-yl)-N^4-isopropyl-6-phenyl-1,3,5-triazine-2,4-diamine] |
| < 100 nM | < 100 nM | 100 to 1000 nM | COC1(c2cc(Nc3nc(NC(C)C)nc(-c4cccc(C(F)(F)F)n4)n3)ccn2)CC1 [Compound 559, N-Isopropyl-N′-[2-(1-methoxy-cyclopropyl)-pyridin-4-yl]-6-(6-trifluoromethyl-pyridin-2-yl)-[1,3,5]triazine-2,4-diamine] |
